Reference: the supplement of paper PMC10883282
± gives the standard deviation of the averaged measurements.

System: VA-ES-BJ
Experiment: relative viability vs DMSO control (72 h) (fraction); higher = more viable cells
In short: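 Sarcoma cell lines were grown in 384-well plates seeded toward 80–90% confluence and exposed 24 h later to serially diluted compound. After 72 h at 37 °C and 5% CO2, with 0.1% DMSO vehicle and a 5 µM positive control on the plates, ATPLite was read. Relative viability, given as percent growth averaged over up to triplicate wells, was rescaled so that 1 is full and 0 is none.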

| Compound | relative viability (0.00017 µM) | relative viability (0.00051 µM) | relative viability (0.00152 µM) | relative viability (0.00457 µM) | relative viability (0.01372 µM) | relative viability (0.04115 µM) | relative viability (0.1235 µM) | relative viability (0.3704 µM) | relative viability (1.111 µM) | relative viability (3.333 µM) | relative viability (10 µM) |
| --- | --- | --- | --- | --- | --- | --- | --- | --- | --- | --- | --- |
| COc1cc2nccc(Oc3ccc(NC(=O)Nc4cc(C)on4)c(Cl)c3)c2cc1OC [Tivozanib] | 1.04 ± 0.022 | 1.07 ± 0.017 | 1.05 ± 0.019 | 1.05 ± 0.025 | 1.05 ± 0.026 | 1.05 ± 0.028 | 1.1 ± 0.04 | 1.14 ± 0.048 | 1.16 ± 0.1 | 1.16 ± 0.12 | 0.812 ± 0.065 |
| C[C@]1(O)C[C@@H](c2nc(-c3ccc4ccc(-c5ccccc5)nc4c3)c3c(N)nccn32)C1 [Linsitinib] | 1.08 ± 0.025 | 1.07 ± 0.04 | 1.05 ± 0.05 | 1.06 ± 0.011 | 1.01 ± 0.02 | 0.989 ± 0.021 | 0.987 ± 0.052 | 0.966 ± 0.042 | 0.937 ± 0.05 | 0.871 ± 0.11 | 0.74 ± 0.036 |
| C=CC(=O)Nc1cccc(Oc2nc(Nc3ccc(N4CCN(C)CC4)cc3)nc3ccsc23)c1 [Olmutinib] | 1.01 ± 0.052 | 1.01 ± 0.029 | 1.01 ± 0.029 | 1.01 ± 0.027 | 1.02 ± 0.043 | 1 ± 0.039 | 0.996 ± 0.052 | 0.96 ± 0.065 | 0.905 ± 0.06 | 0.786 ± 0.038 | 0.534 ± 0.013 |
| O=C(Nc1cnn2ccc(N3CCC[C@@H]3c3cc(F)ccc3F)nc12)N1CC[C@H](O)C1 [Larotrectinib] | 1.05 ± 0.058 | 1.07 ± 0.037 | 1.04 ± 0.04 | 1.06 ± 0.044 | 1.04 ± 0.017 | 1.02 ± 0.046 | 1 ± 0.04 | 0.99 ± 0.022 | 1.02 ± 0.036 | 0.989 ± 0.043 | 0.994 ± 0.043 |
